Test results reported in US10556865B2, “Synergistic herbicidal composition containing certain pyridine or pyrimidine carboxylic acids and certain cereal and rice herbicides” (Dow AgroSciences, LLC, priority 2007, dated 2020).

How the values were obtained:
Assay type in all cases: in vivo
[1] = tested on: littleseed Canarygrass (Phalaris minor L; PHAMI); assay: Postemergence herbicidal activity of mixtures in cereal crops (greenhouse, visual injury); details: 125 g/ha, Table 13
Description: (§1) Seeds of the desired test plant species were planted in Sun Gro MetroMix® 306 planting mixture, which typically has a pH of 6.0 to 6.8 and an organic matter content of about 30 percent, in plastic pots with a surface area of 103.2 square centimeters (cm^2). […] The plants were grown for 7-36 days in a greenhouse with an approximate 14 hour photoperiod which was maintained at about 18° C. during the day and 17° C. during the night. Nutrients and water were added on a regular basis and supplemental lighting was provided with overhead metal halide 1000-Watt lamps as necessary. The plants were employed for testing when they reached the second or third true leaf stage.
(§2) Treatments consisted of compound (as listed in Tables 1 through 64) and a second cereal herbicide alone and in combination. […] The concentrated stock solutions were diluted to 1.5 mg ai/mL with the addition of 2 volumes of an aqueous mixture containing acetone, water, isopropyl alcohol, DMSO, Agri-dex crop oil concentrate, and Triton® X-77 surfactant in a 64.7:26.0:6.7:2.0:0.7:0.01 v/v ratio. A dilution solution was prepared by mixing 1 volume of 97:3 v/v acetone/DMSO and 2 volumes of an aqueous mixture containing acetone, water, isopropyl alcohol, DMSO, Agri-dex crop oil concentrate, and Triton® X-77 surfactant in a 64.7:26.0:6.7:2.0:0.7:0.01 v/v ratio. Compound requirements are based upon a 12 mL application volume at a rate of 187 liters per hectare (L/ha). […] Formulated compounds were applied to the plant material with an overhead Mandel track sprayer equipped with 8002E nozzles calibrated to deliver 187 L/ha over an application area of 0.503 square meters (m^2) at a spray height of 18 inches […] above average plant canopy. Control plants were sprayed in the same manner with the solvent blank.
(§3) The treated plants and control plants were placed in a greenhouse as described above and watered by sub-irrigation to prevent wash-off of the test compounds. After 20-22 days, the condition of the test plants as compared with that of the control plants was determined visually and scored on a scale of 0 to 100 percent where 0 corresponds to no injury and 100 corresponds to complete kill.
(§4) Colby's equation was used to determine the herbicidal effects expected from the mixtures (Colby, S. R. 1967. Calculation of the synergistic and antagonistic response of herbicide combinations. Weeds 15:20-22.).
(§5) The following equation was used to calculate the expected activity of mixtures containing two active ingredients, A and B: Expected=A+B−(A×B/100)

[2] = tested on: annual ryegrass (Lolium multiflorum L; LOLMG); assay: as above; details: 125 g/ha, Table 13
Description: as §1, §2, §3, §4, §5

[3] = tested on: scented mayweed (Matricaria chamomila L; MATCH); assay: as above
Description: (§6) The plants were grown for 7-36 days in a greenhouse with an approximate 14 hour photoperiod which was maintained at about 18° C. during the day and 17° C. during the night. Nutrients and water were added on a regular basis and supplemental lighting was provided with overhead metal halide 1000-Watt lamps as necessary. The plants were employed for testing when they reached the second or third true leaf stage.
(§7) Treatments consisted of compound (as listed in Tables 1 through 64) and a second cereal herbicide alone and in combination. […] Control plants were sprayed in the same manner with the solvent blank.
as §3, §5

[4] = tested on: chickweed (Stellaria media L; STEME); assay: as above; details: for pest or weed control at 140 g/ha: 140 g/ha alone
Description: (§8) Seeds of the desired test plant species were planted in Sun Gro MetroMix® 306 planting mixture, which typically has a pH of 6.0 to 6.8 and an organic matter content of about 30 percent, in plastic pots with a surface area of 103.2 square centimeters (cm^2). When required to ensure good germination and healthy plants, a fungicide treatment and/or other chemical or physical treatment was applied. The plants were grown for 7-36 days in a greenhouse with an approximate 14 hour photoperiod which was maintained at about 18° C. during the day and 17° C. during the night. Nutrients and water were added on a regular basis and supplemental lighting was provided with overhead metal halide 1000-Watt lamps as necessary. The plants were employed for testing when they reached the second or third true leaf stage.
(§9) Treatments consisted of compound (as listed in Tables 1 through 64) and a second cereal herbicide alone and in combination. Weighed amounts of esters (methyl) or salts (TEA [triethylammonium], K [potassium]) of 4-amino-3-chloro -6-(4-chloro-2-fluoro-3-methoxyphenyl)pyridine-2-carboxylic acid (Compound A) or of 6-amino-5-chloro-2-(4-chloro-2-fluoro-3-methoxyphenyl)pyrimidine-4-carboxylic acid (Compound B), were placed in 25 milliliter (mL) glass vials and dissolved in a volume of 97:3 v/v acetone/DMSO to obtain 4.5 milligrams (mg) active ingredient (ai)/mL stock solutions. […] The concentrated stock solutions were diluted to 1.5 mg ai/mL with the addition of 2 volumes of an aqueous mixture containing acetone, water, isopropyl alcohol, DMSO, Agri-dex crop oil concentrate, and Triton® X-77 surfactant in a 64.7:26.0:6.7:2.0:0.7:0.01 v/v ratio. A dilution solution was prepared by mixing 1 volume of 97:3 v/v acetone/DMSO and 2 volumes of an aqueous mixture containing acetone, water, isopropyl alcohol, DMSO, Agri-dex crop oil concentrate, and Triton® X-77 surfactant in a 64.7:26.0:6.7:2.0:0.7:0.01 v/v ratio. Compound requirements are based upon a 12 mL application volume at a rate of 187 liters per hectare (L/ha). Spray solutions of the second cereal herbicide and experimental compound mixtures were prepared by adding the stock solutions to the appropriate amount of dilution solution to form 12 mL spray solution with active ingredients in two- and three-way combinations. Formulated compounds were applied to the plant material with an overhead Mandel track sprayer equipped with 8002E nozzles calibrated to deliver 187 L/ha over an application area of 0.503 square meters (m^2) at a spray height of 18 inches (43 cm) above average plant canopy. Control plants were sprayed in the same manner with the solvent blank.
as §3, §4, §5

[5] = tested on: rigid ryegrass (Lolium rigidum L; LOLRI); assay: as above
Description: as §8, §9, §3, §4, §5

[6] = tested on: Italian ryegrass (Lolium multiflorum L; LOLMU); assay: as above; details: for LOLMU Ob: 25 g/ha
Description: as §8, §9, §3, §4, §5

[7] = tested on: wild pansy (Viola tricolor L; VIOTR); assay: as above; details: Viola tricolor, post-emergence, 50 g/ha alone; read-out: VIOTR Ob
Description: as §6, §7, §3, §5

[8] = tested on: bird's-eye speedwell (Veronica persica L; VERPE); assay: as above; details: Veronica persica, post-emergence, read-out: VERPE Ob
Description: as §6, §7, §3, §5

[9] = tested on: black mustard (Brassica nigra L; BRSNI); assay: as above; details: Brassica, post-emergence, read-out: BRSNI Ob
Description: as §8, §9, §3, §4, §5

[10] = tested on: wild buckwheat (Polygonum convolvulus L; POLCO); assay: as above
Description: as §8, §9, §3, §4, §5

[11] = tested on: Canada thistle (Cirsium arvense L; CIRAR); assay: as above; details: 3.75 g/ha
Description: as §6, §7, §3, §5

[12] = tested on: kochia (Kochia scoparia L; KCHSC); assay: as above; details: 450 g/ha alone
Description: as §8, §9, §3, §4, §5

[13] = tested on: Leptochloa chinensis (L.) NEES (LEFCH); assay: Postemergence herbicidal mixtures for weed control in direct seeded rice (greenhouse, visual % injury); details: for % Injury Ob: LEFCH
Cyperus iria L. (CYPIR) = assay: as above; details: CYPIR
[14] = tested on: wild oats (Avena fatua L; AVEFA); assay: Postemergence herbicidal activity of mixtures in cereal crops (greenhouse, visual injury); details: 25 g/ha, Table 17
Description: as §1, §2, §3, §4, §5

[15] = tested on: windgrass (Apera spica-venti L; APESV); assay: as above; details: Apera spica-venti, post-emergence, 25 g/ha, Table 17; read-out: APESV Ob
Description: as §1, §2, §3, §4, §5

[16] = tested on: annual bluegrass (Poa annua L; POAAN); assay: as above; details: 25 g/ha
Description: as §8, §9, §3, §4, §5

[17] = tested on: downy brome (Bromus tectorum L; BROTE); assay: as above; details: 25 g/ha, Table 10
Description: as §8, §9, §3, §4, §5

[18] = tested on: Ipomoea hederacea (L.) JACQ. (IPOHE); assay: Postemergence herbicidal mixtures for weed control in direct seeded rice (greenhouse, visual % injury after 3 weeks); details: IPOHE
[19] = Stellaria media, post-emergence, read-out: STEME Ob

## 2-[4,5-dihydro-4-methyl-4-(1-methylethyl)-5-oxo-1H-imidazol-2-yl]-4(or 5)-methylbenzoic acid [Imazamethabenz, reference compound]
[1]
  PHAMI: 0%
[2]
  LOLMG Ob: 0%
[3]; 125 g/ha
  MATCH Ob: 0%
[4]; 125 g/ha
  STEME Ob: 10%
[5]; 125 g/ha, Table 13
  LOLRI: 0%
[6]; 125 g/ha, Table 13
  LOLMU: 0%

## CSc1nnc(C(C)(C)C)c(=O)n1N [Metribuzin]
[7]
  pest or weed control at 50 g/ha: 20%
[8]; 50 g/ha alone
  pest or weed control at 50 g/ha: 10%
[9]; 50 g/ha alone
  pest or weed control at 50 g/ha: 50%

## O=C(O)Cc1c[nH]c2ccccc12 [Indol-3-acetic acid]
[3]; Matricaria, post-emergence, 140 g/ha alone, read-out: MATCH Ob
  pest or weed control at 140 g/ha: 0%
[4]; [19]
  pest or weed control at 140 g/ha: 0%
[10]; 140 g/ha alone
  POLCO Ob: 0%

## COc1nc(C)nc(NC(=O)NS(=O)(=O)c2ccsc2C(=O)O)n1 [Thifensulfuron]
[11]
  CIRAR Ob: 20%

## Cc1ccc(NC(=O)N(C)C)cc1Cl [Chlorotoluron]
[9]; 450 g/ha alone
  pest or weed control at 450 g/ha: 50%
[12]
  KCHSC Ob: 50%

## CC(C)N1C(=O)c2ccccc2NS1(=O)=O [Bentazone]
[10]; 120 g/ha
  POLCO Ob: 0%
[9]; 120 g/ha
  pest or weed control at 120 g/ha: 50%

## N#Cc1cc(Br)c(O)c(Br)c1 [Bromoxynil]
[3]; Matricaria, post-emergence, 70 g/ha, read-out: MATCH Ob
  pest or weed control at 70 g/ha: 0%
[4]; Stellaria media, post-emergence, 70 g/ha, read-out: STEME Ob
  pest or weed control at 70 g/ha: 0%
[9]; 70 g/ha
  pest or weed control at 70 g/ha: 50%

## COC(=O)c1c(Cl)nn(C)c1S(=O)(=O)NC(=O)Nc1nc(OC)cc(OC)n1 [Halosulfuron-methyl]
[13]; alone 26 g/ha
  % Injury LEFCH Ob: 0%
[13]; alone 52 g/ha
  % Injury LEFCH Ob: 0%

## CC1(C)CON(Cc2ccccc2Cl)C1=O [Clomazone]
Cyperus iria L. (CYPIR); 560 g/ha alone
  % Injury Ob: 0%
Cyperus iria L. (CYPIR); 1120 g/ha alone
  % Injury Ob: 0%
[13]; 560 g/ha alone
  % Injury Ob: 40%

## CCCOc1nn(C(=O)NS(=O)(=O)c2ccccc2C(=O)OC)c(=O)n1C [Propoxycarbazone-Na, methyl 2-[[[(4,5-dihydro-4-methyl-5-oxo-3-propoxy-1H-1,2,4-triazol-1-yl)carbonyl]amino]sulfonyl]benzoate, reference compound]
[14]
  AVEFA Ob: 76%
[15]
  pest or weed control at 25 g/ha: 90%
[3]; Matricaria, post-emergence, 15 g/ha, read-out: MATCH Ob
  pest or weed control at 15 g/ha: 50%
[8]; 15 g/ha
  pest or weed control at 15 g/ha: 5%
[5]; 25 g/ha, Table 17
  LOLRI Ob: 10%
[16]; Table 10
  POAAN Ob: 7%
[16]; Table 17
  POAAN Ob: 5%
[6]; Table 10
  LOLMU Ob: 17%
[6]; Table 17
  LOLMU Ob: 15%
[17]
  BROTE Ob: 92%

## COc1nc(C)nc(N(C)C(=O)NS(=O)(=O)c2ccccc2C(=O)O)n1 [Tribenuron]
[11]
  CIRAR Ob: 20%

## COc1nc(C)nc(=NC(=O)NS(=O)(=O)c2ccccc2C(=O)O)[nH]1 [Metsulfuron]
[11]
  CIRAR Ob: 20%

## C/C(=N\NC(=O)Nc1cc(F)cc(F)c1)c1ncccc1C(=O)O [Diflufenzopyr]
[18]; 4.38 g/ha alone
  % Injury Ob: 10%
[18]; 8.75 g/ha alone
  % Injury Ob: 40%
[18]; 17.5 g/ha alone
  % Injury Ob: 60%
[18]; 35 g/ha alone
  % Injury Ob: 65%
Cyperus iria L. (CYPIR); 4.38 g/ha alone
  % Injury Ob: 10%
Cyperus iria L. (CYPIR); 8.75 g/ha alone
  % Injury Ob: 15%
Cyperus iria L. (CYPIR); 17.5 g/ha alone
  % Injury Ob: 20%
Cyperus iria L. (CYPIR); 35 g/ha alone
  % Injury Ob: 30%
[13]; 8.75 g/ha alone
  % Injury Ob: 0%

## COc1c(Cl)ccc(Cl)c1C(=O)O [Dicamba]
[3]; Matricaria, post-emergence, 35 g/ha alone, read-out: MATCH Ob
  pest or weed control at 35 g/ha: 30%
[8]; 35 g/ha alone
  pest or weed control at 35 g/ha: 10%
[9]; 35 g/ha alone
  pest or weed control at 35 g/ha: 50%

## O=C(O)CCCc1c[nH]c2ccccc12 [Indol-3-butyric acid]
[4]; [19]
  pest or weed control at 140 g/ha: 0%
[9]; 140 g/ha alone
  pest or weed control at 140 g/ha: 0%
